Measured values published in patent US8178123B2, “Method for augmentation of intraepithelial and systemic exposure of therapeutic agents having substrate activity for cytochrome P450 enzymes and membrane efflux systems following vaginal and oral cavity administration” (Femina Pharma Incorporated, priority 2001, dated 2012).
Each block holds one compound with its values, some of them ahead of it.

Legend:
P-glycoprotein = target: T1, P-glycoprotein (Oryctolagus cuniculus, UniProt Q6UUW3); assay: Apical to basolateral transport of 14C-paclitaxel across rabbit intestinal mucosa with and without glycol ethers or verapamil; format: in vitro ADME
T1 construct: from tissue; host or cells: rabbit intestinal mucosa (tissue perfusion / diffusion cells)
Experimental: Briefly, fresh mucosal samples are collected from female, white New Zealand rabbits, are separated from underlying connective tissue, and are mounted into modified Franz-type diffusion cells (5 mm diameter). […] Radioactivity is determined by liquid scintillation counting using a Beckman LS 6500. Each transport experiment is performed in four replicate tissue samples. […] Individual and mean Papp values with corresponding standard deviations (S.D.) are calculated for each group. Statistical significance is tested by one-way analysis of variance (ANOVA) using Tukey's family error at p<0.05. […]

cytochrome P450 = assay: Cytochrome P450-mediated oxidation of coumarin to 7α-hydroxycoumarin by rabbit liver microsomes; format: biochemical; conditions: 1% glycol ether
Experimental: To evaluate the effect of glycol ethers on cytochrome P450-mediated metabolism, enzymatic conversion of coumarin to its 7α-hydroxycoumarin oxidation product by rabbit liver microsomes in the presence and absence of 5% DGMEE, 1% DBMPE, and 1% DGMBE is determined according to a protocol described previously by Pearce and co-workers (Arch. Biochem. Biophys., 298, 211-225 (1992)).

membrane efflux systems = assay: Bidirectional transport of ritonavir across rabbit mucosa in diffusion cells (membrane efflux activity); format: in vitro ADME
Text: To illustrate experimentally the functional differences in membrane efflux activity among the intestinal, vaginal, and buccal mucosal barriers, bidirectional transport of the protease inhibitor ritonavir is quantitatively assessed and results seen in FIG. 1 may be obtained (FIG. 1). Experimental procedures are described in Example 2.
Briefly, fresh mucosal samples are collected from female, white New Zealand rabbits, are separated from underlying connective tissue, and are mounted into modified Franz-type diffusion cells (5 mm diameter). Permeability studies from the apical to the basolateral as well as in the opposite direction are performed using continuous-flow perfusion chambers designed for mucosal tissue (Squier et al. J. Pharm. Sci., 86, 82-84 (1997)). ^3H-Ritonavir (˜3 μCi/mL) dissolved in 1 mL of 0.01 M PBS, pH 7.4, is applied to the donor compartment, and the perfusate in the received compartment is collected into scintillation vials through 16 hrs. Radioactivity is determined by liquid scintillation counting using a Beckman LS 6500. Each transport experiment is performed in four replicate tissue samples. Apparent permeability coefficients (Papp) are calculated from steady state flux according to Papp [cm/min]=(ΔQ/Δt)/Axc(0), where ΔQ/Δt=linear appearance rate of mass in the receiver, A=cross-sectional area (i.e., 0.20 cm^2), and c(0)=initial ritonavir concentration in the donor compartment at t=0. Individual and mean Papp values with corresponding standard deviations (S.D.) are calculated for each group. Statistical significance is tested by one-way analysis of variance (ANOVA) using Tukey's family error at p<0.05. To evaluate the contribution of membrane efflux system on ritonavir permeability Refflux was calculated as the ratio of Papp(basolateral-apical)/Papp(apical-basolateral).

T1 sequence (Q6UUW3 1-1279): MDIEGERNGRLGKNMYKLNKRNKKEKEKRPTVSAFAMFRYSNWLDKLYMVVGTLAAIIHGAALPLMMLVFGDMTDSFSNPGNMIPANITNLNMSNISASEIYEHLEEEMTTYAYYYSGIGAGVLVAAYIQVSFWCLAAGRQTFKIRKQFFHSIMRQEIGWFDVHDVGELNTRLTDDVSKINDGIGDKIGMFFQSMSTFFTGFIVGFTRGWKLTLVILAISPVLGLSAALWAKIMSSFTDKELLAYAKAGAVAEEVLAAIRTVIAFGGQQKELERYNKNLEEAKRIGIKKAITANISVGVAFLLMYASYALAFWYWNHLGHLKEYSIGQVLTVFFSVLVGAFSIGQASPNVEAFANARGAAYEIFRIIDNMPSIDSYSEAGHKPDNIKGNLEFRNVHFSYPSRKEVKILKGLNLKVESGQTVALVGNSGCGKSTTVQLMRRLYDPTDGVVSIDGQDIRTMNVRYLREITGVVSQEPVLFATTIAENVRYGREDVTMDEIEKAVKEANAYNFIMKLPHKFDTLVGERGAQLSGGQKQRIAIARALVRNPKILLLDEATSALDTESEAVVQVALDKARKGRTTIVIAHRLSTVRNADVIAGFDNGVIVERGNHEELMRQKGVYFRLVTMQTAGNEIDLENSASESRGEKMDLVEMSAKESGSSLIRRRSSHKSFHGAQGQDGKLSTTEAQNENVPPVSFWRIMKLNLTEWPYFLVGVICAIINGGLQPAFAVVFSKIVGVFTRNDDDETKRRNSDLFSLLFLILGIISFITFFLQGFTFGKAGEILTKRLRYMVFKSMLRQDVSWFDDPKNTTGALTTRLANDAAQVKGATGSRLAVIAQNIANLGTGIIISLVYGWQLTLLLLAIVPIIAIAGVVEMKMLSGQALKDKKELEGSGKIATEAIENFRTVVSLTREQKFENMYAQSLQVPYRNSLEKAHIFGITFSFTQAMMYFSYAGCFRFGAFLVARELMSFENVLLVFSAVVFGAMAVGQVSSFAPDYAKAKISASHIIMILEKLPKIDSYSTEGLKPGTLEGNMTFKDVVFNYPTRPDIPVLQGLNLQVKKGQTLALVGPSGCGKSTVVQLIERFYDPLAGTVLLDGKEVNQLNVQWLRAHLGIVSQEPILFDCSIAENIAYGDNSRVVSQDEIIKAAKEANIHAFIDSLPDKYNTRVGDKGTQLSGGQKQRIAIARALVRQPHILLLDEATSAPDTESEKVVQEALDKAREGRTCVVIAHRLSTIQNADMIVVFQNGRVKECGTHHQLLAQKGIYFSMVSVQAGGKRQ

- enhancement of intestinal absorption of paclitaxel (P-glycoprotein; 1% in transport buffer): 4.1 fold
- reduction of formation of the 7α-hydroxycoumarin metabolite (cytochrome P450): about 42%
Structure (SMILES): CCCCOCCOCCO [DGMBE, diethylene glycol monobutyl ether]

- enhancement of intestinal absorption of paclitaxel (P-glycoprotein; 5% in transport buffer): 1.8 fold
Structure (SMILES): CCOCCOCCO [DGMEE, diethylene glycol mono 2-ethyl ether]

- enhancement of intestinal absorption of paclitaxel (P-glycoprotein; 1% in transport buffer): 2.5 fold
Structure (SMILES): CCCOCCOCCO [DGMPE, diethylene glycol monopropyl ether]

- Refflux compared with intestinal barrier (membrane efflux systems; buccal rabbit epithelium in vitro): significantly smaller
- basolateral to apical flux relative to the opposite direction (Refflux) (membrane efflux systems; intestinal rabbit mucosa in vitro, 3H-ritonavir): 9.2 fold
- Refflux compared with intestinal barrier (membrane efflux systems; vaginal rabbit epithelium in vitro): significantly smaller
Structure (SMILES): CC(C)c1nc(CN(C)C(=O)N[C@H](C(=O)N[C@@H](Cc2ccccc2)C[C@H](O)[C@H](Cc2ccccc2)NC(=O)OCc2cncs2)C(C)C)cs1 [ritonavir]
